Experiments:
[1] = test system: recombinant serine protease domain (SPD) of FSAP; test: Activity of recombinant serine protease domain of FSAP; format: biochemical, human; conditions: rSPD 20 nM; peptide 0-50 μM; S2288 250 µM (Fig S7A)
Experimental: Fig S7. […]
(§1) nM) and Factor Xa (20 nM) with S-2765 (250 µM). pro-FSAP (20 nM) and recombinant serine protease domain (rSPD) (20 nM) with S2288 (250 µM). All pro-enzymes and enzyme were obtained from Enzyme Research Laboratories (South Bend, IN, USA) except plasminogen and FSAP, which were isolated in house; and pro-uPA was from Grünenthal (Stolberg, Germany). All chromogenic substrates were from Hyphen Biomed (Neuville Sur Oise, France). Experiments were carried out in TBS with Tween-20 (0.1 % wt/ vol) BSA (0.3% wt/vol) and CaCl2 (2 mM). Absorbance at 405 nm was measured over time and the enzyme activity is depicted was measured in duplicates (mean + or -range) and similar results were obtained in 3

pro-FSAP in human plasma = biological target: T1, pro-FSAP in human plasma (Homo sapiens, UniProt Q14520); test: Western blotting of activated plasma, FSAP-inhibitor complex; format: biochemical; conditions: hirudin and citrate plasma 1:2, 1 h at 37 °C, non-reducing; NNKC9/41 25 µM (Fig S6)
T1 construct: from tissue; host or cells: human hirudin or citrate plasma from healthy donors, diluted 1:12
T1 sequence (Q14520 24-560): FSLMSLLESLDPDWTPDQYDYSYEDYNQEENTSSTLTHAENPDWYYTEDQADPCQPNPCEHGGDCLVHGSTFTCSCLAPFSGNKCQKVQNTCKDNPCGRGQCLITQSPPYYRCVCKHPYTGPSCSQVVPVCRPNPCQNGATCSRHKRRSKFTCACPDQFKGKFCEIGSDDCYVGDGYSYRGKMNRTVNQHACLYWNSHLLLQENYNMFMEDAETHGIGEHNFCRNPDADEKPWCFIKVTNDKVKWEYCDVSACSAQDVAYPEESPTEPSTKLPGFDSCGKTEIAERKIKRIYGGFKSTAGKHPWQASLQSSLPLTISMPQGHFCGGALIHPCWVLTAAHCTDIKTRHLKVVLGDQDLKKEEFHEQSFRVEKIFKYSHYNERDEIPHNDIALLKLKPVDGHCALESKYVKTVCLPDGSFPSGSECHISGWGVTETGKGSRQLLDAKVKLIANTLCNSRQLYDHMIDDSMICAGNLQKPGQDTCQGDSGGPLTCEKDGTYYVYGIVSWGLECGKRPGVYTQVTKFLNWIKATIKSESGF
Experimental: Hirudin plasma Citrate plasma
Fig S6. Western blotting of activated plasma: Hirudin or citrate plasma (1:2) dilution was incubated for 1 h at 37 °C with test substances and the samples were analyzed by Western blotting with an anti-FSAP polyclonal antibody under non-reducing conditions. Top panel: NNKC9/41 and Ser-Ser cyclic peptides (25 µM) were compared to histones (50 µg/ml). Lower panel: 100, 50, 25 and 12.5 µM NNKC9/41 and Ser-Ser cyclicpeptide were compared. Arrows on the right indicate the presence of FSAP and FSAP-inhibitor complexes and MW markers are indicated on the left.Results are representative of 3 independent experiments. […]

pro-FSAP in MI/MI plasma = test: Substrate turnover in MI/MI plasma; format: biochemical, human; conditions: MI/MI citrate plasma 1:12; 25 μM (Fig 6A)
Experimental: Figure 6 Pro-FSAP activation and clotting in plasma by NNKC9/41: (A) citrate plasma (1:12 dilution) from donors with WT/WT, WT/MI, and MI/MI genotypes and WT-FSAP-deficient plasma (FSAP-DP) were compared. Substrate turnover was monitored after addition of NNKC9/41 or the Ser–Ser linear peptide (25 μM each). Results are shown as mean + range of duplicate wells. (B) Pooled prothrombin-deficient citrated plasma (1:5 dilution) was recalcified with 10 mM CaCl2 and incubated with NNKC9/41 or scrambled control peptide (0–25 μM each) for 60 min at 37 °C in the presence or absence of the FSAP-inhibitory MA-FSAP-38C7 (5 μg/mL). Initiation of clotting was achieved by adding the tissue factor/phospholipid and prothrombin complex concentrate. Clotting time was measured as diluted prothrombin time (dPT) in seconds. Data are the mean of three independent experiments. The relative dPT in % of the untreated control is presented as mean ± standard error (SE) (*p <0.05, two-way analysis of variance (ANOVA) and Bonferroni post-test).
Human citrate plasma (0.38% w/v) or hirudin plasma (25 μg/mL Lepirudin) was obtained from five healthy donors. […] Hydrolysis of the fluorogenic substrates was measured using a Synergy HI plate reader with excitation at 320 nm and emission at 460 nm at 37 °C for 60 min. The maximal velocity was calculated from the linear part of the progress curve. […]

thrombin = test: Specificity: thrombin; format: biochemical; conditions: thrombin 20 nM; peptide 0-50 μM; CS01 (Fig S7)
Experimental: Fig S7. […]
Pro-thrombin (100 nM) and thrombin (20 nM) […]
as §1, with “Bend,” for “nM) and Factor Xa (20 nM) with S-2765 (250 µM). pro-FSAP (20 nM) and recombinant serine protease domain (rSPD) (20 nM) with S2288 (250 µM). All pro-enzymes and enzyme were obtained from Enzyme Research Laboratories (South Bend,”

In the case of CRGAMWMYKRC [NNKC9/41], the “effect on activity of recombinant SPD” value [1] is reported as “did not alter the activity”, the FSAP-inhibitor complex band (pro-FSAP in human plasma) is reported as “emergence of an FSAP-inhibitor complex band” and the substrate turnover (pro-FSAP in MI/MI plasma) is reported as “none”. The effect on activity (thrombin) was “did not influence the activity”.

Reference: publication PMC9486805, “Identification of a Phage Display-Derived Peptide Interacting with the N-Terminal Region of Factor VII Activating Protease (FSAP) Enables Characterization of Zymogen Activation” (ACS Chemical Biology, 2022)
